In PubChem BioAssay (NCI):
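GI50 is the concentration that inhibits growth by half. TGI: concentration producing complete growth inhibition.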

Assays:
Assay in all cases: inhibition of tumour cell growth, NCI panel, 384-well format
SN12C renal = system: SN12C renal
SNB-19 CNS = system: SNB-19 CNS
786-0 renal = system: 786-0 renal
EKVX NSCLC = system: EKVX NSCLC
NCI-H226 lung = system: NCI-H226 lung
UACC-257 melanoma = system: UACC-257 melanoma
DU-145 prostate = system: DU-145 prostate
ACHN renal = system: ACHN renal
OVCAR-3 ovarian = system: OVCAR-3 ovarian
RPMI-8226 leukemia = system: RPMI-8226 leukemia
OVCAR-8 ovarian = system: OVCAR-8 ovarian
UACC-62 melanoma = system: UACC-62 melanoma
SW-620 colon = system: SW-620 colon
NCI-H23 lung = system: NCI-H23 lung
MDA-MB-468 breast = system: MDA-MB-468 breast
KM12 colon = system: KM12 colon
HCT-15 colon = system: HCT-15 colon
HCT-116 colon = system: HCT-116 colon
NCI-H322M lung = system: NCI-H322M lung
UO-31 renal = system: UO-31 renal
MDA-MB-231 breast = system: MDA-MB-231 breast
MDA-MB-435 melanoma = system: MDA-MB-435 melanoma
T-47D breast = system: T-47D breast
SNB-75 CNS = system: SNB-75 CNS
K-562 leukemia = system: K-562 leukemia
HOP-92 NSCLC = system: HOP-92 NSCLC
NCI/ADR-RES ovarian = system: NCI/ADR-RES ovarian
RXF 393 renal = system: RXF 393 renal
SK-OV-3 ovarian = system: SK-OV-3 ovarian
A549 NSCLC = system: A549 NSCLC
NCI-H522 lung = system: NCI-H522 lung
IGROV1 ovarian = system: IGROV1 ovarian
SF-295 CNS = system: SF-295 CNS
MOLT-4 leukemia = system: MOLT-4 leukemia
SF-539 CNS = system: SF-539 CNS
MALME-3M melanoma = system: MALME-3M melanoma
HOP-62 NSCLC = system: HOP-62 NSCLC
SK-MEL-2 melanoma = system: SK-MEL-2 melanoma
HL-60(TB) leukemia = system: HL-60(TB) leukemia
MCF7 breast = system: MCF7 breast
CCRF-CEM leukemia = system: CCRF-CEM leukemia
CAKI-1 renal = system: CAKI-1 renal
OVCAR-5 ovarian = system: OVCAR-5 ovarian
OVCAR-4 ovarian = system: OVCAR-4 ovarian
LOX IMVI melanoma = system: LOX IMVI melanoma
M14 melanoma = system: M14 melanoma
BT-549 breast = system: BT-549 breast
TK-10 renal = system: TK-10 renal
HS 578T breast = system: HS 578T breast
SF-268 CNS = system: SF-268 CNS
HT29 colon = system: HT29 colon
A498 renal = system: A498 renal
PC-3 prostate = system: PC-3 prostate
U251 glioblastoma = system: U251 glioblastoma
SK-MEL-28 melanoma = system: SK-MEL-28 melanoma

Structure (SMILES): CC(=O)O[C@]1(C(C)=O)CC[C@H]2[C@@H]3C=C(C)C4=CC(=O)CC[C@]4(C)[C@H]3CC[C@@]21C
- GI50 (SN12C renal): > 100 µM
- TGI (SN12C renal): > 100 µM
- GI50 (SNB-19 CNS): > 100 µM
- TGI (SNB-19 CNS): > 100 µM
- GI50 ([…]-0 renal): > 100 µM
- TGI (786-0 renal): > 100 µM
- GI50 (EKVX NSCLC): > 100 µM
- TGI (EKVX NSCLC): > 100 µM
- GI50 (NCI-H226 lung): > 100 µM
- TGI (NCI-H226 lung): > 100 µM
- GI50 (UACC-257 melanoma): > 100 µM
- TGI (UACC-257 melanoma): > 100 µM
- GI50 (DU-145 prostate): > 100 µM
- TGI (DU-145 prostate): > 100 µM
- GI50 (ACHN renal): > 100 µM
- TGI (ACHN renal): > 100 µM
- GI50 (OVCAR-3 ovarian): > 100 µM
- TGI (OVCAR-3 ovarian): > 100 µM
- GI50 (RPMI-8226 leukemia): 11.5 µM
- TGI (RPMI-8226 leukemia): 28.1 µM
- GI50 (OVCAR-8 ovarian): > 100 µM
- TGI (OVCAR-8 ovarian): > 100 µM
- GI50 (UACC-62 melanoma): > 100 µM
- TGI (UACC-62 melanoma): > 100 µM
- GI50 (SW-620 colon): > 100 µM
- TGI (SW-620 colon): > 100 µM
- GI50 (NCI-H23 lung): > 100 µM
- TGI (NCI-H23 lung): > 100 µM
- GI50 (MDA-MB-468 breast): 44.1 µM
- TGI (MDA-MB-468 breast): > 100 µM
- GI50 (KM12 colon): > 100 µM
- TGI (KM12 colon): > 100 µM
- GI50 (HCT-15 colon): > 100 µM
- TGI (HCT-15 colon): > 100 µM
- GI50 (HCT-116 colon): 70.7 µM
- TGI (HCT-116 colon): > 100 µM
- GI50 (NCI-H322M lung): > 100 µM
- TGI (NCI-H322M lung): > 100 µM
- GI50 (UO-31 renal): > 100 µM
- TGI (UO-31 renal): > 100 µM
- GI50 (MDA-MB-231 breast): > 100 µM
- TGI (MDA-MB-231 breast): > 100 µM
- GI50 (MDA-MB-435 melanoma): > 100 µM
- TGI (MDA-MB-435 melanoma): > 100 µM
- GI50 (T-47D breast): > 100 µM
- TGI (T-47D breast): > 100 µM
- GI50 (SNB-75 CNS): > 100 µM
- TGI (SNB-75 CNS): > 100 µM
- GI50 (K-562 leukemia): 20.5 µM
- TGI (K-562 leukemia): 41.7 µM
- GI50 (HOP-92 NSCLC): > 100 µM
- TGI (HOP-92 NSCLC): > 100 µM
- GI50 (NCI/ADR-RES ovarian): > 100 µM
- TGI (NCI/ADR-RES ovarian): > 100 µM
- GI50 (RXF 393 renal): > 100 µM
- TGI (RXF 393 renal): > 100 µM
- GI50 (SK-OV-3 ovarian): > 100 µM
- TGI (SK-OV-3 ovarian): > 100 µM
- GI50 (A549 NSCLC): > 100 µM
- TGI (A549 NSCLC): > 100 µM
- GI50 (NCI-H522 lung): > 100 µM
- TGI (NCI-H522 lung): > 100 µM
- GI50 (IGROV1 ovarian): > 100 µM
- TGI (IGROV1 ovarian): > 100 µM
- GI50 (SF-295 CNS): > 100 µM
- TGI (SF-295 CNS): > 100 µM
- GI50 (MOLT-4 leukemia): 14.1 µM
- TGI (MOLT-4 leukemia): 29.3 µM
- GI50 (SF-539 CNS): > 100 µM
- TGI (SF-539 CNS): > 100 µM
- GI50 (MALME-3M melanoma): > 100 µM
- TGI (MALME-3M melanoma): > 100 µM
- GI50 (HOP-62 NSCLC): > 100 µM
- TGI (HOP-62 NSCLC): > 100 µM
- GI50 (SK-MEL-2 melanoma): > 100 µM
- TGI (SK-MEL-2 melanoma): > 100 µM
- GI50 (HL-60(TB) leukemia): 10.5 µM
- TGI (HL-60(TB) leukemia): 22.5 µM
- GI50 (MCF7 breast): > 100 µM
- TGI (MCF7 breast): > 100 µM
- GI50 (CCRF-CEM leukemia): 18.6 µM
- TGI (CCRF-CEM leukemia): 32.9 µM
- GI50 (CAKI-1 renal): > 100 µM
- TGI (CAKI-1 renal): > 100 µM
- GI50 (OVCAR-5 ovarian): > 100 µM
- TGI (OVCAR-5 ovarian): > 100 µM
- GI50 (OVCAR-4 ovarian): > 100 µM
- TGI (OVCAR-4 ovarian): > 100 µM
- GI50 (LOX IMVI melanoma): > 100 µM
- TGI (LOX IMVI melanoma): > 100 µM
- GI50 (M14 melanoma): 76.3 µM
- TGI (M14 melanoma): > 100 µM
- GI50 (BT-549 breast): > 100 µM
- TGI (BT-549 breast): > 100 µM
- GI50 (TK-10 renal): > 100 µM
- TGI (TK-10 renal): > 100 µM
- GI50 (HS 578T breast): > 100 µM
- TGI (HS 578T breast): > 100 µM
- GI50 (SF-268 CNS): > 100 µM
- TGI (SF-268 CNS): > 100 µM
- GI50 (HT29 colon): > 100 µM
- TGI (HT29 colon): > 100 µM
- GI50 (A498 renal): > 100 µM
- TGI (A498 renal): > 100 µM
- GI50 (PC-3 prostate): 74.7 µM
- TGI (PC-3 prostate): > 100 µM
- GI50 (U251 glioblastoma): > 100 µM
- TGI (U251 glioblastoma): > 100 µM
- GI50 (SK-MEL-28 melanoma): > 100 µM
- TGI (SK-MEL-28 melanoma): > 100 µM
